In publication PMC5665424, “Software-aided approach to investigate peptide structure and metabolic susceptibility of amide bonds in peptide drugs based on high resolution mass spectrometry” (PLoS ONE, 2017):
“Also recorded” adds a separate entry of the source.

What was measured:
[1] = biological target: chymotrypsin (Bos taurus, UniProt P00766); assay: Incubation with chymotrypsin in simulated intestinal fluid, LC-HRMS; settings: for site of cleavage (amide hydrolysis) by chymotrypsin: chymotrypsin 500 μg/mL in SIF, 10 μM peptide, 37°C, up to 120 min, metabolite structures from LC-HRMS/MS (Mass-MetaSite)
Method: (§4) Incubations with dataset-1 were performed using isolated enzymes. We investigated serine proteases like trypsin, chymotrypsin, and pancreatic elastase (E 3.4.21.1, E 3.4.21.4, E 3.4.21.36) at a concentration of 500 μg/mL in simulated intestinal fluid (SIF) and the aspartic protease pepsin (E 3.4.23.1) at a concentration of 500 μg/mL in simulated gastric fluid (SGF). Proteases were purchased from Sigma Aldrich and SIF and SGF were purchased from RICCA Chemical Company (Arlington, TX, USA). […] All incubations were conducted at 37°C.
Negative control samples were prepared under the same conditions of the incubation (see above), containing each enzyme but without adding probe compounds. Probe compounds were added to 96-well plates (Micronic 0.75 mL V-bottom) using a Hewlett Packard HPD300e. […] Each well was a time point, with five timepoints (0, 5, 15, 45 and 120 min) per compound per protease. Incubations were carried out using a Hamilton MicroLab STAR Plus liquid-handler to initiate, conduct and stop incubation reactions within a single automated method. The incubation plates were placed in heated shakers present on the deck of the liquid-handler and operated at 37°C and 400 rpm shaking speed. Reactions were started with the addition of the enzyme at the appropriate time to allow for all reactions to be quenched at a single time. Incubation quenching was again carried out by the Hamilton STAR Plus with the addition of 100 μL of acetonitrile with 1% formic acid (FA) or 1% ammonium hydroxide (pepsin-only) and the internal standard (melanotan) at a concentration of 1 μM. Following reaction quenching, the samples were vortexed for approximately 2 min and the time zero sample was generated by aliquoting 50 nL of the appropriate stock compound into quenched control samples. The samples were then centrifuged in a Beckman Allegra 25R at 6000 rcf for 20 min at 10°C. Resulting supernatant was transferred to Eppendorf LoBind 96-well plates and 1 μL was injected onto a Waters Acquity BEH-C18 1 x 50 mm, 1.7 μm column via a Waters Acquity M-Class ultra-performance liquid chromatography (UPLC) autosampler. All time points were analyzed using a data-dependent MS/MS method.
For dataset-1, chromatographic separation of metabolites was performed using the ACQUITY UPLC system (Waters, Milford, MA, USA). The ACQUITY UPLC BEH C18 column (1.0 × 50 mm, 1.7 μm) was heated to 60°C. The mobile phase consisted of 0.1% FA in water (eluent A) and 0.1% formic acid in acetonitrile (eluent B) at a flow rate of 75 μL/min. The initial condition was 10% eluent B, which was maintained for 0.1 min. Eluent B was then increased via a linear gradient to 40% until 3.1 min and further increased to 90% via linear gradient to 3.6 min. Eluent B was then held at 90% until 4.0 min when it was ramped down to 10% by 4.05 min and held until the end of the run at 6 min. […] Full scan/data-dependent MS/MS analyses were run on a Thermo Scientific Q-Exactive Plus mass spectrometer operated in positive electrospray ionization (ESI) mode. The MS and MS/MS acquisition scans were operated with a resolution setting of 17,500 for both, with an automatic gain control (AGC) setting of 1E6 and maximum injection time of 100 ms for MS and AGC of 2E5 and max injection time of 50 ms for full scan/data-dependent MS/MS.

[2] = biological target: neprilysin (NEP) (Homo sapiens, UniProt P08473); assay: Incubation with neprilysin in Hank's buffered salt solution, LC-HRMS; settings: NEP 2 μg/mL in Hank's buffered salt solution, 37°C, 2, 4, 8, 24 hr (GLP-1 0, 5, 15, 30, 60 min), Fig 12b
Sequence of neprilysin (NEP) (P08473 whole entry): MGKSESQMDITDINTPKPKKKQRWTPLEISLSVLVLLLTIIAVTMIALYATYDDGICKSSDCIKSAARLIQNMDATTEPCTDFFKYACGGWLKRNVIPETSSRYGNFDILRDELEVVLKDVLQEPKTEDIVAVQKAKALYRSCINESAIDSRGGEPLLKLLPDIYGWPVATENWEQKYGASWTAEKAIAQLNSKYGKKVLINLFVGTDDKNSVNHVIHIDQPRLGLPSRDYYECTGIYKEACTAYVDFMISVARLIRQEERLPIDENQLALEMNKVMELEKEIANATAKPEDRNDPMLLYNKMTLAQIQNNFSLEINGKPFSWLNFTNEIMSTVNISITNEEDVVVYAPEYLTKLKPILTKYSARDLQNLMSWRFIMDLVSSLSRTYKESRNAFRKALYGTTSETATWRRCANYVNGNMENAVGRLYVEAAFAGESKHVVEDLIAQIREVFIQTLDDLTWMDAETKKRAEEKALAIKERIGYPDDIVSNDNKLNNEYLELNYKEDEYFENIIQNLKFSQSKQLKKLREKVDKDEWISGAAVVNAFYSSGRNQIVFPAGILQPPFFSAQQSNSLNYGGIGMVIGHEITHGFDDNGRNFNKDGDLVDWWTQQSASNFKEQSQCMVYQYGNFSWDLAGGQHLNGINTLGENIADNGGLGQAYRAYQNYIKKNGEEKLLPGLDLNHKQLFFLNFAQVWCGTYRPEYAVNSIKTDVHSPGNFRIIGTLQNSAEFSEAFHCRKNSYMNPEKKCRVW
Method: (§1) Incubations with dataset-1 were performed using isolated enzymes. […] All incubations were conducted at 37°C.
(§2) The dataset-2 peptide incubations were performed at Roche Innovation Center Basel F. Hoffmann-La Roche Ltd., (Hoffmann-La Roche, Basel, Switzerland) using isolated enzymes. For both DPP-4 and NEP incubations, a solution of the respective enzyme in Hank’s buffered salt solution was pre-incubated at 37°C for 3 to 5 min, in 96-well plate Nunc (Thermo Scientific, 163320) before the addition of 30 μL of test substance to give final concentrations of 2 μg/mL DPP-4 or 2 μg/mL NEP. Negative control samples were prepared under the same conditions (see above), containing each enzyme but without adding test compound. […] Reactions were started with the addition of […] and then quenched at each time point with 75 μL cold acetonitrile containing 1% FA followed by thorough mixing. The samples were centrifuged at 4°C for 15 min at 14,000g, and the supernatant was collected. The metabolite profile was immediately analyzed.
(§3) To generate dataset-2, a Thermo Scientific Dionex UltiMate 3000 RS UPLC system in combination with a Pal autosampler (CTC Analytics AG, Zwingen, Switzerland) was used. Chromatographic separation was performed using an Acquity CSHT Phenyl-Hexyl Column (1.7 μm, 2.1 x 100 mm). The mobile phases consisted of A: H2O/0.1% FA and B: methanol/0.1% FA. […]

[3] = biological target: T1, dipeptidyl peptidase-4 (DPP-4) (Homo sapiens, UniProt P27487); assay: Incubation with dipeptidyl peptidase-4 in Hank's buffered salt solution, LC-HRMS; format: in vitro ADME; settings: DPP-4 2 μg/mL in Hank's buffered salt solution
T1 construct: purchased Sigma D3446; host or cells: Sf9 cells
T1 sequence (P27487 whole entry): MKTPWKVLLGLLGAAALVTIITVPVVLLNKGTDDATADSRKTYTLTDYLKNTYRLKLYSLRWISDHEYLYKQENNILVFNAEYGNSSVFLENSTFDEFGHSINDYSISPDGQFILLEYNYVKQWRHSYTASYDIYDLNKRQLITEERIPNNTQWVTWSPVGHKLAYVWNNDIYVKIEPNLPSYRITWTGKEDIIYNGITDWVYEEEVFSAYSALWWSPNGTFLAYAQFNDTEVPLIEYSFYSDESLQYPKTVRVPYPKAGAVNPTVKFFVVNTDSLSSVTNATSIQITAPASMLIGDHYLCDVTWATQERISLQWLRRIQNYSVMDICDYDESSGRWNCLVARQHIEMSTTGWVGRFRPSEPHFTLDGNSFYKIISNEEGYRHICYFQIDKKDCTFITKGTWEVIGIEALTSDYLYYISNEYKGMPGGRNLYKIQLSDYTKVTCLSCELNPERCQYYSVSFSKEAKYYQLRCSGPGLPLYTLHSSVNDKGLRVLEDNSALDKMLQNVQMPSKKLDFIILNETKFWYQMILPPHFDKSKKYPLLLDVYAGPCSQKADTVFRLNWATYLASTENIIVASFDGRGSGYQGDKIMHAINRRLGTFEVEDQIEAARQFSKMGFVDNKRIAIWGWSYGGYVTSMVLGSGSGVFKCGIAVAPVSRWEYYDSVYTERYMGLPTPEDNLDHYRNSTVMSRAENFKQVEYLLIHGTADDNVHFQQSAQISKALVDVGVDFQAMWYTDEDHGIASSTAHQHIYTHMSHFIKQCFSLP
Method: as §1, §2, §3

[4] = biological target: T2, pancreatic elastase (Sus scrofa, UniProt P00772); assay: Incubation with pancreatic elastase in simulated intestinal fluid, LC-HRMS; format: in vitro ADME, porcine; settings: elastase 500 μg/mL in SIF pH 7.4-7.6, 10 μM peptide, 37°C, 0, 5, 15, 45, 120 min, internal standard melanotan, Fig 11c
T2 construct: porcine pancreas; purchased Sigma (Sigma Aldrich) E0258; host or cells: porcine pancreas (tissue-derived)
T2 sequence (P00772 27-266): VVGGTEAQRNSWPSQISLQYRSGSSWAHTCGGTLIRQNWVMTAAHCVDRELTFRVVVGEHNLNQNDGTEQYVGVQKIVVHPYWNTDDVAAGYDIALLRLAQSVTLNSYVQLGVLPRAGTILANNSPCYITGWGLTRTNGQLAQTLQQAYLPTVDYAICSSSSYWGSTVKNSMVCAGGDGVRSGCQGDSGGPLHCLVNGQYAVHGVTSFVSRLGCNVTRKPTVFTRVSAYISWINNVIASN
Method: as §1
Supporting Table 1: Incubation conditions and proteases characteristics
Chymotrypsin Trypsin Elastase Pepsin
αChymotrypsin from Trypsin from Elastase from Pepsin from porcine
Protease bovine pancreas, bovine pancreas, porcine pancreas, gastric mucosa,
Internal Melanotan II acetate salt,
Mobile Phase Water +0.1% formic acid
Mobile Phase Acetonitrile+0.1% formic acid […]
Quadrupole -Orbitrap Mass Spectrometer

[5] = biological target: T3, trypsin (Bos taurus, UniProt P00760); assay: Incubation with trypsin in simulated intestinal fluid, LC-HRMS
T3 sequence (P00760 24-246): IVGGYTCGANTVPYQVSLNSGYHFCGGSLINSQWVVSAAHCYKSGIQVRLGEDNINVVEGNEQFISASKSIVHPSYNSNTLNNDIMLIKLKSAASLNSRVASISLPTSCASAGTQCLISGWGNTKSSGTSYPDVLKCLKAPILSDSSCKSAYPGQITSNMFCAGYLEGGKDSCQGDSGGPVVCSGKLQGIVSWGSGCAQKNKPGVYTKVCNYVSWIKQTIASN
Method: as §4
Negative control samples were prepared under the same conditions of the incubation (see above), containing each enzyme but without adding probe compounds. Probe compounds were added to 96-well plates (Micronic 0.75 mL V-bottom) using a Hewlett Packard HPD300e. […] Each well was a time point, with five timepoints (0, 5, 15, 45 and 120 min) per compound per protease. Incubations were carried out using a Hamilton MicroLab STAR Plus liquid-handler to initiate, conduct and stop incubation reactions within a single automated method. The incubation plates were placed in heated shakers present on the deck of the liquid-handler and operated at 37°C and 400 rpm shaking speed. Reactions were started with the addition of the enzyme at the appropriate time to allow for all reactions to be quenched at a single time. Incubation quenching was again carried out by the Hamilton STAR Plus with the addition of 100 μL of acetonitrile with 1% formic acid (FA) or 1% ammonium hydroxide (pepsin-only) and the internal standard (melanotan) at a concentration of 1 μM. Following reaction quenching, the samples were vortexed for approximately 2 min and the time zero sample was generated by aliquoting 50 nL of the appropriate stock compound into quenched control samples. The samples were then centrifuged in a Beckman Allegra 25R at 6000 rcf for 20 min at 10°C. […] All time points were analyzed using a data-dependent MS/MS method. […]

Compound: CCNC(=O)[C@@H]1CCCN1C(=O)[C@H](CCCNC(=N)N)NC(=O)[C@H](CC(C)C)NC(=O)[C@@H](COC(C)(C)C)NC(=O)[C@H](Cc1ccc(O)cc1)NC(=O)[C@H](CO)NC(=O)[C@H](Cc1c[nH]c2ccccc12)NC(=O)[C@H](Cc1cnc[nH]1)NC(=O)[C@@H]1CCC(=O)N1 [buserelin, Buserelin]
- site of cleavage (amide hydrolysis) by chymotrypsin [1]: amide hydrolysis of the Trp-Ser bond; also recorded: amide hydrolysis of the Tyr-D-Ser(tBu) bond

Compound: CCCCCCCCCCCCCCCC(=O)N[C@@H](CCC(=O)NCCCC[C@H](NC(=O)[C@H](C)NC(=O)[C@H](C)NC(=O)[C@H](CCC(N)=O)NC(=O)CNC(=O)[C@H](CCC(=O)O)NC(=O)[C@H](CC(C)C)NC(=O)[C@H](Cc1ccc(O)cc1)NC(=O)[C@H](CO)NC(=O)[C@H](CO)NC(=O)[C@@H](NC(=O)[C@H](CC(=O)O)NC(=O)[C@H](CO)NC(=O)[C@@H](NC(=O)[C@H](Cc1ccccc1)NC(=O)[C@@H](NC(=O)CNC(=O)[C@H](CCC(=O)O)NC(=O)[C@H](C)NC(=O)[C@@H](N)Cc1cnc[nH]1)[C@@H](C)O)[C@@H](C)O)C(C)C)C(=O)N[C@@H](CCC(=O)O)C(=O)N[C@@H](Cc1ccccc1)C(=O)N[C@H](C(=O)N[C@@H](C)C(=O)N[C@@H](Cc1c[nH]c2ccccc12)C(=O)N[C@@H](CC(C)C)C(=O)N[C@H](C(=O)N[C@@H](CCCNC(=N)N)C(=O)NCC(=O)N[C@@H](CCCNC(=N)N)C(=O)NCC(=O)O)C(C)C)[C@@H](C)CC)C(=O)O [liraglutide, Liraglutide]
- metabolic stability with NEP: percent parent peptide remaining with respect to time, compared in words [2]: digested faster than the other compounds; also recorded: NEP acted slower as compared to DPP-4
- metabolic stability with DPP-4: percent parent peptide remaining with respect to time, compared in words ([3]; 37°C, 2, 4, 8, 24 hr (GLP-1 0, 5, 15, 30, 60 min), LC-HRMS, Fig 12a): digested faster than the other compounds
- site of cleavage (amide hydrolysis) by DPP-4 ([3]; 37°C, metabolite structures from LC-HRMS/MS (Mass-MetaSite)): mainly metabolized by DPP-4 at the SoC Ala-Glu

Compound: C[C@@H](O)[C@@H]1NC(=O)[C@H](CCCCN)NC(=O)[C@@H](Cc2c[nH]c3ccccc23)NC(=O)[C@H](Cc2ccccc2)NC(=O)[C@@H](NC(=O)[C@H](N)Cc2ccccc2)CSSC[C@@H](C(=O)N[C@H](CO)[C@@H](C)O)NC1=O [octreotide, Octreotide]
- metabolic stability with pancreatic elastase: percent parent peptide remaining with respect to time, compared in words [4]: digested significantly faster than the larger secretin and calcitonin, but it was slower than oxytocin

Compound: CC[C@H](C)[C@@H]1NC(=O)[C@H](Cc2ccc(O)cc2)NC(=O)[C@@H](N)CSSC[C@@H](C(=O)N2CCC[C@H]2C(=O)N[C@@H](CC(C)C)C(=O)NCC(N)=O)NC(=O)[C@H](CC(N)=O)NC(=O)[C@H](CCC(N)=O)NC1=O [oxytocin, Oxytocin]
- metabolic stability with chymotrypsin: percent parent peptide remaining with respect to time, compared in words ([1]; chymotrypsin 500 μg/mL in SIF pH 7.4-7.6, 10 μM peptide, 37°C, 0, 5, 15, 45, 120 min, LC-HRMS, internal standard melanotan, Fig 11b): digested slower than calcitonin
- site of cleavage (amide hydrolysis) by chymotrypsin [1]: cleavage of Leu-Gly; also recorded: Tyr-Ile (M1-38, cycle opening)
- metabolic stability with trypsin: percent parent peptide remaining with respect to time, compared in words ([5]; trypsin 500 μg/mL in SIF pH 7.4-7.6, 10 μM peptide, 37°C, 0, 5, 15, 45, 120 min, LC-HRMS, internal standard melanotan, Fig 11a): digested slower than calcitonin; also recorded: hydrolyzed slower than all other peptides

Compound: Glp-His-Trp-Ser-Tyr-HisBzl-Leu-Arg-Pro-NHEt [histrelin, Histrelin, synthetic LHRH analogue, Sigma L2761]
- metabolic stability with pancreatic elastase: percent parent peptide remaining with respect to time, compared in words [4]: slower than for leuprolide

Compound: Glp-His-Trp-Ser-Tyr-Ser-tBu-Leu-Arg-Pro-NHNHCONH2 [goserelin, Goserelin]
- site of cleavage (amide hydrolysis) by trypsin ([5]; trypsin 500 μg/mL in SIF, 10 μM peptide, 37°C, up to 120 min, metabolite structures from LC-HRMS/MS (Mass-MetaSite)): also when the C-terminal Pro was modified to Pro-NHNHCONH2 in goserelin
